Test results taken from patent publication US7795294B2, “Tetrahydro-2H-indazole pyrazole cannabinoid modulators” (Janssen Pharmaceutica N.V., priority 2006, dated 2010).
Read-outs that look alike come from different tables or passages of the source.

Key:
human CB2 receptor = biological target: T1, human CB2 receptor (Homo sapiens, UniProt P34972); assay: Binding assay for CB2 agonists or inverse agonists, [3H]-CP-55,940 displacement on membranes of transfected SK-N-MC cells; settings: for inhibition at 0.2 µM: read-out: Cannabinoid CB2 Receptor Binding percent inhibition
T1 construct: expressed in transfected cells; host or cells: SK-N-MC cells, stably transfected with pcDNA3 CB-2 (human); semi-purified membrane pellet
T1 sequence (P34972 whole entry): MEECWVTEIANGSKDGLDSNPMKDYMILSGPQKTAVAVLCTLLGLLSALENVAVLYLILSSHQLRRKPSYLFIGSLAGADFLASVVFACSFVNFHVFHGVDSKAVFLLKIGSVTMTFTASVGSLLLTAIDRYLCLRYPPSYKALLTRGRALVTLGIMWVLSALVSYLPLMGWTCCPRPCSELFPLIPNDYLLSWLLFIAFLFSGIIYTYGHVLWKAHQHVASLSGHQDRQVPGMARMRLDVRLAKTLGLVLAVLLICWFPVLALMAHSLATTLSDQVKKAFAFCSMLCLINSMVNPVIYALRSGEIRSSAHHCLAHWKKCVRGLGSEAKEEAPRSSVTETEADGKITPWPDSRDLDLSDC
Experimental: (§1) The human CB1 and CB2 receptors were stably expressed in SK-N-MC cells transfected with pcDNA3 CB-1 (human) or pcDNA3 CB-2 (human). The cells were grown in T-180 cell culture flasks under standard cell culture conditions at 37° C. in a 5% CO2 atmosphere. The cells were harvested by trysinization and homogenized in a homogenization buffer (10 mM Tris, 0.2 mM MgCl2, 5 mM KCl, with protease inhibitors aprotinin, leupeptin, pepstatin A and bacitracin) and centrifuged (2000 g). The supernatant was then centrifuged in 2M sucrose (31,300 g) to produce a semi-purified membrane pellet. The pellet was resuspended in homogenization and stored at −80° C.
(§2) On the day of the assay, the pellet was thawed on ice and diluted in assay buffer (50 mM Tris-HCl, 5 mM MgCl2, 2.5 mM EDTA, 0.5 mg/mL fatty acid free bovine serum albumin, pH 7.5). […] The plate was covered and incubated for 90 minutes at 30° C. The contents were then aspirated onto a Packard Unifilter GF/C filter bottom plate prewet with 0.5% polyethyleneimine. The wells of the polypropylene plate were rinsed and aspirated seven times with a 0.9% saline-0.5% Tween 20 solution. The Unifilter plate was dried, a scintillation cocktail was added to each well and the counts representing binding were quantitated in a TopCount scintillation counter.
(§3) For compounds tested, an IC50 binding value was obtained from percent inhibition studies in which various test concentrations were used. The binding value was calculated by linear regression. An average value is shown for those compounds where two or more IC50 values were obtained.
(§4) An average value is shown for those compounds where two or more percent inhibition values were obtained.

human CB1 receptor = biological target: T2, human CB1 receptor (Homo sapiens, UniProt P21554); assay: Binding assay for CB1 agonists or inverse agonists, [3H]-CP-55,940 displacement on membranes of transfected SK-N-MC cells; settings: for inhibition at 0.2 µM: read-out: Cannabinoid CB1 Receptor Binding percent inhibition
T2 construct: expressed in transfected cells; host or cells: SK-N-MC cells, stably transfected with pcDNA3 CB-1 (human); semi-purified membrane pellet
T2 sequence (P21554 whole entry): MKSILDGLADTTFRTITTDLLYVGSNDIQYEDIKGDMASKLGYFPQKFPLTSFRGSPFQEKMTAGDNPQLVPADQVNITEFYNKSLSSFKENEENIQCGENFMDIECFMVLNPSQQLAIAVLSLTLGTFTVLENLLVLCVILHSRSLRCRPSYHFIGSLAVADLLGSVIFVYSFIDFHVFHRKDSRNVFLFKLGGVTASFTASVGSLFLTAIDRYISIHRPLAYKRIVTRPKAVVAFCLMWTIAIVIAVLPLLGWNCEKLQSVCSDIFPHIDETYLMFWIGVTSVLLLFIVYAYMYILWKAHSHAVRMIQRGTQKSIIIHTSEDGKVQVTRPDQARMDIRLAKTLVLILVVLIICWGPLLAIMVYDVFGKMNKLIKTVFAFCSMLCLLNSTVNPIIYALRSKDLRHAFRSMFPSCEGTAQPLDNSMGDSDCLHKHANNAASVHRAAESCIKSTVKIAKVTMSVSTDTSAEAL
Experimental: as §1, §2, §3, §4

Structure (SMILES) | inhibition at 0.2 µM (human CB2 receptor) [%] | IC50 (human CB1 receptor) [nM] | IC50 (human CB2 receptor) [nM] | inhibition at 0.2 µM (human CB1 receptor) [%] | IC50 (human CB2 receptor; radioligand CP-55,940 0.2 nM, average where two or more values, read-out: Cannabinoid CB2 Receptor Binding IC50) [nM]
C[C@@H](NC(=O)[C@@H]1CCCc2c1nn(-c1ccc(Cl)cc1Cl)c2-c1ccc(Br)cc1)c1ccccc1 [Cpd 46, (7R)-3-(4-bromo-phenyl)-2-(2,4-dichloro-phenyl)-4,5,6,7-tetrahydro-2H-indazole-7-carboxylic acid [(1R)-1-phenyl-ethyl]-amide] | 28 | 0.8 | – | – | –
C[C@@H](NC(=O)C1CCCc2c1nn(-c1ccc(Cl)cc1Cl)c2-c1ccc(Cl)cc1)C1CCCCC1 (stereo partly drawn) [Cpd 29, 3-(4-chloro-phenyl)-2-(2,4-dichloro-phenyl)-4,5,6,7-tetrahydro-2H-indazole-7-carboxylic acid [(1R)-1-cyclohexyl-ethyl]-amide] | 7 | 1 | – | – | –
CC(NC(=O)C1CCCc2c1nn(Cc1ccccc1)c2-c1cccc(F)c1)C1CCCCC1 (stereo not drawn) [Cpd 9, 2-benzyl-3-(3-fluoro-phenyl)-4,5,6,7-tetrahydro-2H-indazole-7-carboxylic acid (1-cyclohexyl-ethyl)-amide] | – | 3500 | 2130 | – | –
COc1ccc(-c2c3c(nn2-c2ccc(Cl)cc2Cl)[C@H](C(=O)N[C@H](C)c2ccccc2)CCC3)cc1 [Cpd 24, (7R)-2-(2,4-dichloro-phenyl)-3-(4-methoxy-phenyl)-4,5,6,7-tetrahydro-2H-indazole-7-carboxylic acid [(1R)-1-phenyl-ethyl]-amide] | 28 | – | – | 58 | –
C[C@@H](NC(=O)[C@H]1CCCc2c1nn(-c1ccc(Cl)cc1Cl)c2-c1ccc(Cl)cc1)c1ccccc1 [Cpd 39, (7S)-3-(4-chloro-phenyl)-2-(2,4-dichloro-phenyl)-4,5,6,7-tetrahydro-2H-indazole-7-carboxylic acid [(1R)-1-phenyl-ethyl]-amide] | 1 | 22 | – | – | –
COc1ccc(-c2c3c(nn2-c2ccc(Cl)cc2Cl)C(C(=O)NN2CC4CCCC4C2)CCC3)cc1 (stereo not drawn) [Cpd 28, 2-(2,4-dichloro-phenyl)-3-(4-methoxy-phenyl)-4,5,6,7-tetrahydro-2H-indazole-7-carboxylic acid (hexahydro-cyclopenta[c]pyrrol-2-yl)-amide] | 23 | – | – | 59 | –
O=C(NN1CCCCCC1)C1CCCc2c1nn(-c1ccc(Cl)cc1Cl)c2-c1ccc(Cl)cc1 (stereo not drawn) [Cpd 34, 3-(4-chloro-phenyl)-2-(2,4-dichloro-phenyl)-4,5,6,7-tetrahydro-2H-indazole-7-carboxylic acid azepan-1-ylamide] | 0 | 35 | – | – | –
C[C@@H](NC(=O)[C@@H]1CCCc2c1nn(-c1ccc(Cl)cc1Cl)c2-c1ccc(F)cc1)c1ccccc1 [Cpd 38, (7R)-2-(2,4-dichloro-phenyl)-3-(4-fluoro-phenyl)-4,5,6,7-tetrahydro-2H-indazole-7-carboxylic acid [(1R)-1-phenyl-ethyl]-amide] | 14 | 2 | – | – | –
COc1ccc(-c2c3c(nn2-c2ccc(Cl)cc2Cl)[C@@H](C(=O)N[C@H](C)c2ccccc2)CCC3)cc1 [Cpd 25, (7S)-2-(2,4-dichloro-phenyl)-3-(4-methoxy-phenyl)-4,5,6,7-tetrahydro-2H-indazole-7-carboxylic acid [(1R)-1-phenyl-ethyl]-amide] | 35 | 4 | – | – | –
O=C(N[C@H](CO)c1ccccc1)[C@H]1CCCc2c1nn(-c1ccc(Cl)cc1Cl)c2-c1ccc(Br)s1 [Cpd 56, (7S)-3-(5-bromo-thiophen-2-yl)-2-(2,4-dichloro-phenyl)-4,5,6,7-tetrahydro-2H-indazole-7-carboxylic acid [(1S)-2-hydroxy-1-phenyl-ethyl]-amide] | – | 46 | 300 | – | –
O=C(NN1CCCCC1)C1CCCc2c1nn(-c1ccc(Cl)cc1Cl)c2-c1ccc(Br)cc1 (stereo not drawn) [Cpd 41, 3-(4-bromo-phenyl)-2-(2,4-dichloro-phenyl)-4,5,6,7-tetrahydro-2H-indazole-7-carboxylic acid piperidin-1-ylamide] | 26 | 40 | – | – | –
O=C(NN1CC2CCCC2C1)C1CCCc2c1nn(-c1ccc(Cl)cc1Cl)c2-c1ccc(Cl)cc1 (stereo not drawn) [Cpd 50, 3-(4-chloro-phenyl)-2-(2,4-dichloro-phenyl)-4,5,6,7-tetrahydro-2H-indazole-7-carboxylic acid (hexahydro-cyclopenta[c]pyrrol-2-yl)-amide] | 3 | – | – | 39 | –
COC[C@H]1CCCN1NC(=O)C1CCCc2c1nn(-c1ccc(Cl)cc1Cl)c2-c1ccc(OC)cc1 (stereo partly drawn) [Cpd 32, 2-(2,4-dichloro-phenyl)-3-(4-methoxy-phenyl)-4,5,6,7-tetrahydro-2H-indazole-7-carboxylic acid [(2R)-2-methoxymethyl-pyrrolidin-1-yl]-amide] | 6 | – | – | 46 | –
COc1ccc(-c2c3c(nn2-c2ccc(Cl)cc2Cl)C(C(=O)NN2CCCCCC2)CCC3)cc1 (stereo not drawn) [Cpd 22, 2-(2,4-dichloro-phenyl)-3-(4-methoxy-phenyl)-4,5,6,7-tetrahydro-2H-indazole-7-carboxylic acid azepan-1-ylamide] | 22 | – | – | 59 | –
CC(NC(=O)C1CCCc2c1nn(Cc1ccccc1)c2-c1cccc(F)c1)C12CCC3CC(CC3C1)C2 (stereo not drawn) [Cpd 20, 2-benzyl-3-(3-fluoro-phenyl)-4,5,6,7-tetrahydro-2H-indazole-7-carboxylic acid [1-(octahydro-2,5-methano-inden-5-yl)-ethyl]-amide] | – | 130 | 70 | – | –
C[C@@H](NC(=O)C1CCCc2c1nn(-c1ccc(Cl)cc1Cl)c2-c1ccc(Cl)s1)C1CCCCC1 (stereo partly drawn) [Cpd 47, 3-(5-chloro-thiophen-2-yl)-2-(2,4-dichloro-phenyl)-4,5,6,7-tetrahydro-2H-indazole-7-carboxylic acid [(1R)-1-cyclohexyl-ethyl]-amide] | 5 | 4 | – | – | –
COc1ccc(-c2c3c(nn2-c2ccc(Cl)cc2Cl)C(C(=O)NN2CCCCC2)CCC3)cc1 (stereo not drawn) [Cpd 21, 2-(2,4-dichloro-phenyl)-3-(4-methoxy-phenyl)-4,5,6,7-tetrahydro-2H-indazole-7-carboxylic acid piperidin-1-ylamide] | 18 | – | – | 42 | –
C[C@@H](NC(=O)[C@@H]1CCCc2c1nn(-c1ccc(Cl)cc1Cl)c2-c1ccc(Cl)cc1)c1ccccc1 [Cpd 40, (7R)-3-(4-chloro-phenyl)-2-(2,4-dichloro-phenyl)-4,5,6,7-tetrahydro-2H-indazole-7-carboxylic acid [(1R)-1-phenyl-ethyl]-amide] | 11 | 0.6 | – | – | –
CCOC(=O)[C@H]1C2CCC(C2)[C@@H]1NC(=O)C1CCCc2c1nn(-c1ccc(OC)cc1)c2-c1ccc(C)cc1 (stereo partly drawn) [Cpd 3, (2S,3S)-3-{[2-(4-methoxy-phenyl)-3-p-tolyl-4,5,6,7-tetrahydro-2H-indazole-7-carbonyl]-amino}-bicyclo[2.2.1]heptane-2-carboxylic acid ethyl ester] | – | 60 | – | – | 370
C[C@@H](NC(=O)[C@@H]1CCCc2c1nn(-c1ccc(Cl)cc1Cl)c2-c1ccc(Cl)s1)c1ccccc1 [Cpd 49, (7R)-3-(5-chloro-thiophen-2-yl)-2-(2,4-dichloro-phenyl)-4,5,6,7-tetrahydro-2H-indazole-7-carboxylic acid [(1R)-1-phenyl-ethyl]-amide] | 14 | 7 | – | – | –
C[C@@H](NC(=O)C1CCCc2c1nn(-c1ccc(Cl)cc1Cl)c2-c1ccc(Br)cc1)C1CCCCC1 (stereo partly drawn) [Cpd 44, 3-(4-bromo-phenyl)-2-(2,4-dichloro-phenyl)-4,5,6,7-tetrahydro-2H-indazole-7-carboxylic acid [(1R)-1-cyclohexyl-ethyl]-amide] | 21 | 2 | – | – | –
Cc1ccc(-c2c3c(nn2Cc2ccccc2)C(C(=O)NC(C)C24CC5CC(CC(C5)C2)C4)CCC3)cc1 (stereo not drawn) [Cpd 7, 2-benzyl-3-p-tolyl-4,5,6,7-tetrahydro-2H-indazole-7-carboxylic acid (1-adamantan-1-yl-ethyl)-amide] | – | 370 | 800 | – | –
COc1ccc(-n2nc3c(c2-c2ccc(C)cc2)CCCC3C(=O)NC(C)C23CCC4CC(CC4C2)C3)cc1 (stereo not drawn) [Cpd 2, 2-(4-methoxy-phenyl)-3-p-tolyl-4,5,6,7-tetrahydro-2H-indazole-7-carboxylic acid [1-(octahydro-2,5-methano-inden-5-yl)-ethyl]-amide] | – | 2130 | 2600 | – | –
CC(NC(=O)C1CCCc2c1nn(Cc1ccccc1)c2-c1ccc(Cl)cc1)C12CC3CC(CC(C3)C1)C2 (stereo not drawn) [Cpd 18, 2-benzyl-3-(4-chloro-phenyl)-4,5,6,7-tetrahydro-2H-indazole-7-carboxylic acid (1-adamantan-1-yl-ethyl)-amide] | – | 6200 | 1900 | – | –
